Data from patent publication US11391740B2, “Methods and materials for identifying and treating cancer” (Mayo Foundation for Medical Education and Research, priority 2019, dated 2022).

Key:
C4-2ENZ-R cells = test: SRB cell proliferation assay in enzalutamide-resistant C4-2 cells; assay type: cell-based, human; details: for sensitivity of C4-2ENZ-R cells compared with C4-2CON cells by half maximal inhibitory concentration (IC50): C4-2ENZ-R vs C4-2CON, 4 days, FIGS. 5A-5C
Procedure: FIGS. 5A-5D: Dual inhibition of BET and CBP/p300 overcomes ENZ-resistance in ARPCa. A: Heatmap showing the sensitivity of control (C4-2CON) and enzalutamide-resistant C4-2 cells (C4-2ENZ-R) to various inhibitor. B-C: C4-2CON and C4-2ENZ-R cells were treated with the indicated concentrations of BET inhibitor (JQ1) and CBP/p300 inhibitor (CPI637) for 4 days, the cell proliferation was measured by SRB assay, and the 96 well plates were imaged. Data are represented as means±s.d., n=4. Statistical significance was determined by two-way ANOVA. D: C4-2ENZ-R cells were treated with the indicated concentrations of ENZ, JQ1, CPI637, or a combination of JQ1 and CPI-637, and cell proliferation was measured by a SRB assay. Data are represented as means±s.d., n=6. Statistical significance was determined by two-way ANOVA.
FIGS. 7A-7E. Full-length AR, but not AR variants, drives ENZ-resistant cell proliferation. A: C4-2CON and C4-2ENZ-R cells were treated with the indicated concentrations of ENZ, and cell proliferation was measured by SRB assay. Data are represented as means±s.d., n=6. Statistical significance was determined by two-way ANOVA. B: Heatmap showing RNA-seq read intensity of the canonical AR signature genes in C4-2CON and C4-2ENZ-R cells. C: RT-qPCR showing the mRNA level of KLK3 in C4-2CON and C4-2ENZ-R cells. Data are represented as means±s.d., n=3. Statistical significance was determined by unpaired two-tailed Student's t tests. D: Western blot analysis showing the expression of full-length (FL) AR and AR variants (Vs) in C4-2CON and C4-2ENZ-R cells. ERK2 was used as a loading control. E: UCSC genome browser tracks showing RNA-seq signals of AR and AR variants in C4-2CON and C4-2ENZ-R cells.
LNCaP, VCaP, LAPC4 PCa, and 293T cell lines were purchased from ATCC. […]
293T cells were co-transfected with control shRNA or shRNA specific for human AR, CXXC5, TET2, ID1, ID3 and PFN2. […] Cells were fixed at different time points (day 0-5) and cell growth was measured using a sulforhodamine B (SRB) assay (He et al., Nature Commun., 7:13122 (2016)).

ENZ-resistant PDXs = test: ENZ-resistant patient-derived xenograft (PDX) tumor growth in mice; assay type: in vivo; details: castrated male mice; ENZ 10 mg/kg, CPI637 10 mg/kg, JQ1 50 mg/kg, oral gavage 5 days per week
CRPC PDX = test: CRPC patient-derived xenograft (PDX) tumor growth in mice; assay type: in vivo; details: ENZ 10 mg/kg daily, 32 days
From the text: FIG. 11A-D. Upregulation of CXXC5 and ID1 in AFI-resistant PCa patients. A: H&E staining and IHC for AR, CXXC5, and ID1 in hormone naïve, CRPC and ENZ-resistant PC patient specimens. Scale bar, 200 μm. B: H&E staining and IHC for AR, CXXC5, and ID1 in ABI-resistant ARPC patient specimens. Scale bar, 200 m (low magnification); 50 m (high magnification). C-D: Comparison of ENZ response in CRPC and ENZ-resistant PDXs. CRPC and ENZ-resistant PDXs were planted into the right flank of 6 week-old male SCID mice. After the tumor volume reached about 100 mm^3, mice were randomly assigned within each tumor group and treated with 10 mg/kg of […] daily. Tumor size was measured every 4 days (C). After 32 days of treatment, tumors were isolated and photographed (D). Data are represented as means±s.d., n=8. Statistical significance was determined by two-way ANOVA.
NOD-SCID male mice were generated in house and used for animal experiments. All mice were housed under standard conditions with a 12 hour light/dark cycle and access to food and water ad libitum and maintained under pathogen-free conditions. […] Mice were treated 5 days per week by oral gavage and tumor growth was measured in a blinded fashion using digital calipers. The tumor volume was calculated using the following equation: tumor volume=length×width×width×0.5.

C4-2ENZ-R xenografts = test: C4-2ENZ-R xenograft tumor growth in SCID mice; assay type: in vivo; details: ENZ 10 mg/kg per day, 28 days, FIGS. 1A, 1B
Procedure: FIGS. 1A-1G. Genome-wide profiling of AR chromatin binding in ENZ-resistant PCa cells. A: Effect of ENZ treatment on growth of C4-2CON and C4-2ENZ-R xenografts in mice. C4-2ENZ-R and C4-2CON cells suspended in 0.1 mL matrigel were injected into the right flank of 6-week old male SCID mice. After the volume of tumor nodules reached about 100 mm^3, mice were randomly assigned within control and ENZ-resistant groups and were treated with ENZ at 10 mg/kg or vehicle per day and tumor volume was measured every 4 days. B: After 28 days of treatment, tumors were isolated from mice in each group and photographed. Data are represented as means±s.d., n=8. Statistical significance was determined by two-way ANOVA. […] D: AR was knocked down by specific shRNAs in C4-2CON and C4-2ENZ-R cells, and cell proliferation was measured by SRB assay. […] Statistical significance was determined by two-way ANOVA. E: Venn diagram showing AR chromatin binding peaks in C4-2CON and C4-2ENZ-R cells detected by ChIP-seq. F: Heatmaps showing ChIP-seq read intensity of AR, H3K27ac, and FOXA1 in C4-2CON and C4-2ENZ-R cells. […]
FIGS. 6A-6G. […] Representative images (scale bar, 50 μm), and quantified data are show in (a) and (b), respectively. […] Tumor size was measured every 4 days (d). After 28 days of treatment, tumors isolated from mice were photographed (e), and tumor weight was measured (f). […]

Row | Compound | sensitivity of C4-2ENZ-R cells compared with C4-2CON cells by half maximal inhibitory concentration (IC50) (C4-2ENZ-R cells) | response of ENZ-resistant PDXs to treatment (ENZ-resistant PDXs) | growth of C4-2ENZ-R cells under ENZ treatment in vitro (C4-2ENZ-R cells; in vitro, FIG. 7A) | response of CRPC PDX to treatment (CRPC PDX) | growth of C4-2ENZ-R xenografts under ENZ treatment in vivo (C4-2ENZ-R xenografts)
1 | C[C@@H]1CC(=O)Nc2cccc(-c3ccc4c(c3)c(-c3cnn(C)c3)nn4C)c2N1 [CPI637] | much more sensitive | responded |  |  | 
2 | CNC(=O)c1ccc(N2C(=S)N(c3ccc(C#N)c(C(F)(F)F)c3)C(=O)C2(C)C)cc1F [ENZ, enzalutamide] |  |  | resistant to ENZ treatment | still responded | resistant to ENZ treatment
3 | Cc1sc2c(c1C)C(c1ccc(Cl)cc1)=N[C@@H](CC(=O)OC(C)(C)C)c1nnc(C)n1-2 [JQ1] | much more sensitive | responded |  |  | 
